From ChEMBL document CHEMBL4118040, “Neomacrophorin X, a [4.4.3]Propellane-Type Meroterpenoid from Trichoderma sp. 1212-03” (J Nat Prod, 2017)

Tests used:
[1] = test system: HL-60; test: Cytotoxicity against human HL60 cells after 2 days by MTT assay; type: functional, cell-based; conditions: HL-60, 48 h
[2] = molecular target: T1, Proteasome Macropain subunit MB1 (Homo sapiens, UniProt P28074); test: Inhibition of human erythrocyte 20s proteasome chymotrypsin-like activity using Suc-LLVY-MCA as substrate pretreated for 10 mins followed by substrate addition measured after 3 hrs by spectrophotometric method
T1 sequence (P28074 whole entry): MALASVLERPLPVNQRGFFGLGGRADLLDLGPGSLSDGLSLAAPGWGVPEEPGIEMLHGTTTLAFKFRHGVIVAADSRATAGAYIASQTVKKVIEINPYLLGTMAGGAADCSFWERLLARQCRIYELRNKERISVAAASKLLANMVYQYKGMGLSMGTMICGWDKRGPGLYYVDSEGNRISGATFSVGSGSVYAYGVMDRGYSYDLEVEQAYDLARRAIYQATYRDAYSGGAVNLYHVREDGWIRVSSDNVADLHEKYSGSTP

Compound: C=C1CC[C@H]2C(C)(C)[C@H](O)CC[C@]2(C)[C@H]1CC1=C(O)C(=O)C2=C(C1=O)[C@@]13C=C[C@@H](O)[C@H](O)[C@]1(C2)C(=O)c1c(O)cc(C)cc1C3=O
- IC50 [1]: 9.3 µM
- IC50 [2]: 18.5 µM
